Data from US20050013853A1, “Anti-proliferative drugs” (priority 2000, published 2005).
Like-named read-outs stand apart in the source and are kept apart here.

Tests used:
[1] = test system: wild type B16 melanoma cells; test: Cell viability of wild type B16 melanoma cells; format: cell-based; details: 24 hr, 10-100 μM
[2] = test system: MDR B16 melanoma cells; test: Cell viability of MDR B16 melanoma cells; format: cell-based; details: 24 hr
Method: Specifically, the different drugs were applied for 24 hr to the cells (20,000/well) at concentrations of 10, 20, 30, 50, 75 and 100 μM.

[3] = test system: HaCat cells; test: Cell viability of HaCat keratinocytes, Neutral Red Staining; format: cell-based, human; details: for Effect on viability of HaCat cells: 5-100 μM, 24 hr; for Responsiveness of HaCat cells (viability): comparison of thioridazine, doxorubicin, 5-FU, FIG. 3A; for IC50: Homo sapiens, HaCaT, read-out: Mean IC50 in keratinocytes, HaCat
Method: (§1) In general, 10,000 cells/well were treated with drugs from different categories of psychotropic drugs.
(§2) The effect of the drugs was compared at equimolar concentrations to that of two commonly used anticancer agents (Doxorubicin and 5-fluorouracil (5-FU)).

[4] = test system: HaCat A5 cells; test: Cell viability of HaCat A5 keratinocytes, Neutral Red Staining; format: cell-based, human; details: for Effect on viability of HaCat A5 cells: 5-100 μM, 24 hr
Method: as §1, §2

[5] = test system: HaCat II-4RT cells; test: Cell viability of HaCat II-4RT keratinocytes, Neutral Red Staining; format: cell-based, human; details: for Effect on viability of HaCat II4 cells: 5-100 μM, 24 hr
Method: as §1, §2

[6] = test system: TNF-α secretion from mouse splenocytes; test: Con-A-induced TNF-α secretion from mouse splenocytes, ELISA; format: cell-based; details: 48 hours; for IC50: Mus musculus, Splenocyte, 2.5-20 μM, mean of three experiments
Method: Cells treated with Con-A alone served as the control (“Con-A”).
In particular, mouse splenocyte cells 1×10 (cells/well) were exposed, for 48 hours, to the different drugs and ConA and at the end of the experiment plates were centrifuged and supernatant collected for cytokine determination and TNF-α levels were determined in soups by ELISA. (R&D #DY410 Minnapolis USA)
(§3) As described above, cells were exposed to each drug for 48 hours.

[7] = test system: IL-2 and INF-γ secretion from mouse splenocytes; test: Con-A-induced splenocyte secretion of IL-2 and INF-γ; format: cell-based; details: 48 hours, 2.5-10 μM; FIG. 14
Method: (§4) In particular, cells 1×10^6 cells/well were exposed for 48 hours to each drug (2.5-10 μM).

[8] = test system: caspase-3 in human HaCaT cells; test: Caspase-3 activation, fluorimetric Ac-DEVD-AMC method; format: cell-based; details: 4 hours, paroxetine 10-20 μM, sertraline 10-[…] μM
Method: An additional marker for apoptosis is the activation of caspase-3 (a key mediator implicated in apoptosis in mammalian cells belong to the asparate-specific cysteinyl proteases or caspases).
In the following assay caspase-3 activation was measured by an enzymatic fluorimetric method, using fluorigenic substrate (Ac-DEVD-AMC) (Biomol, PA, USA) which produces a blue fluorescence detected at a 360 nm wavelength. The fluorigenic moiety AMC is cleaved from the substrate in the presence of caspase-3 (and caspase-3-like enzymes), which results in appearance of a yellow-green fluorescence monitored by a fluorimeter at 460 nm. The amount of the yellow-green fluorescence is proportional to the activity of the caspase-3 in the cell extract sample.
[…]. […] Measurements were determined, after the 4 hr exposure, every 3 min during 45 min, after which a specific caspase 3 inhibitor DEVD-AMC-CHO (Alexis corp. Lausen Switzerland) was added to half of the samples and measurements continued for another 45 min as previously described (Garcia-Calvo M, Peterson E P, Leiting B, Ruel R, Nicholson D W, Thornberry N A: Inhibition of human caspases by peptide-based and macromolecular inhibitors. J Biol Chem, 27(49):32608-13, 1998).

[9] = test system: mouse splenocytes; test: Con-A-induced mouse splenocyte proliferation, Alamar blue; format: cell-based; details: for Splenocyte proliferation: 48 hours
Method: The effect of several psychotropic drugs on the proliferation of Con-A-induced mouse splenocyte proliferation was examined. The specific drugs evaluated included, without being limited thereto, the bicyclic antidepressants paroxetine and sertraline.
In particular, mouse splenocytes were isolated from C57BL healthy female mice. […]
Cell viability was assessed 48 hr later using Alamar blue staining.
as §4, §3

[10] = test system: human lymphocytes; test: PHA-induced human lymphocyte proliferation, Alamar blue; format: cell-based; details: PHA 2.5 μg/ml, 48 hr, 3 healthy volunteers
Method: Human lymphocytes were isolated from whole blood of 3 healthy volunteers. Lymphocyte proliferation was induced by exposure 1×10^6 cells/well to phytohemagglutinin (PHA) (2.5 μg/ml). Cell viability was assessed 48 hr post exposure to paroxetine (2.5-10.0 μM) using Alamar blue reagent (Wildflower, Santa Fe, N.M., USA) staining Nociari M M, Shalev A, Benias P , et al. A novel one-step highly sensitive fluorimetric assay to evaluate cell-mediated cytotoxicity. J. Immunol. Methods 213(2): 157-167, 1998.

[11] = test system: HaCat cells; test: Apoptosis by Hoechst 33342 / propidium iodide fluorescence microscopy; format: cell-based, human; details: 20 μM, 24 hours
Method: In particular, HaCat cells (10,000/well) were exposed to the different drugs (20 μM) or to saline (control). Twenty four hours post exposure, the cells were co-stained with the DNA binding dyes, Hoechst 33342 (20 μg/ml) propidium iodide (PI) (10 μg/ml), for 5 min at room temperature. The cells were then examined using a fluorescence microscope with ultraviolet excitation at 340-380 nm. Typically, intact cells are detected by a blue Hoechst fluorescence while fragmented nuclear is detected by a red fluorescence, indicating cells undergoing apoptosis [Harel et al., Sensitivity of HaCat keratinocytes to diabetogenic toxins, Biochem. Pharmacol., 63:171-178, 2002].

[12] = test system: MDR B16 melanoma cells; test: Sensitization of MDR B16 melanoma cells to doxorubicin; format: cell-based; details: 24 hr
[13] = test system: wild type B16 melanoma cells; test: Effect on doxorubicin toxicity in wild type B16 melanoma cells; format: cell-based; details: clomipramine 10, […], 20 μM + doxorubicin 1, 2.5, 5 μM, 24 hr
[14] = 24 hr post-administration, Neutral Red, mean of several experiments

CN1CCN(C2=Nc3cc(Cl)ccc3Nc3ccccc32)CC1 [Clozapine, clozapine]
Viability of wild type B16 melanoma cells [1]: reduced in a dose dependent manner | Viability of MDR B16 melanoma cells [2]: reduced in a dose dependent manner | Effect on viability of HaCat cells [3]: effective in reducing viability | Effect on viability of HaCat A5 cells [4]: effective in reducing viability | Effect on viability of HaCat II4 cells [5]: effective in reducing viability

NCCC(Oc1ccc(C(F)(F)F)cc1)c1ccccc1 (stereo not shown) [norfluoxetine]
Antiproliferative activity as compared to fluoxetine ([3]; viability of HaCat cells, FIG. 10): five times increased antiproliferative activity

COc1cccc2c1C(=O)c1c(O)c3c(c(O)c1C2=O)C[C@@](O)(C(=O)CO)C[C@@H]3O[C@H]1C[C@H](N)[C@H](O)[C@H](C)O1 [doxorubicin]
Responsiveness of HaCat cells (viability) [3]: equimolar IC50 as for thioridazine

Fc1ccc([C@@H]2CCNC[C@H]2COc2ccc3c(c2)OCO3)cc1 [Paroxetine, paroxetine]
Viability of wild type B16 melanoma cells [1]: capable of reducing cell viability | TNF-α secretion ([6]; 2.5-25 μM, FIG. 16): inhibited cell proliferation and TNF-α secretion in a dose dependent manner | IC50 [6]: 2.5 µM | Lymphocyte-induced cytokine secretion (IL-2, INF-γ) [7]: decrease in the lymphocyte-induced cytokine secretion | Caspase-3 activity [8]: significant increase in caspase-3 activity | Effect on viability of HaCat cells [3]: effective in reducing viability | IC50 [3, 14]: 17.8 µM | Splenocyte proliferation ([9]; 2.5-10 μM, FIG. 14): dose dependent decrease in splenocyte proliferation | Splenocyte proliferation ([9]; 2.5-25 μM, FIG. 16): inhibited cell proliferation and TNF-α secretion in a dose dependent manner | IC50 ([9]; Mus musculus, Splenocyte, 48 hr, 2.5-10 μM, C57BL mice): 2.5 to 5.5 µM | IC50 [10]: 5 to 10 µM | Effect on viability of HaCat A5 cells [4]: effective in reducing viability | Effect on viability of HaCat II4 cells [5]: effective in reducing viability | Red fluorescence of nuclei indicating apoptosis [11]: dramatic increase in red fluorescence of nuclei

CN(C)CCCC1(c2ccc(F)cc2)OCc2cc(C#N)ccc21 (stereo not shown) [Citalopram, citalopram]
IC50 [3, 14]: > 100 µM

CN(C)CCCN1c2ccccc2CCc2ccccc21 [Imipramine, imipramine]
Effect on viability of HaCat cells [3]: effective in reducing viability | Effect on viability of HaCat A5 cells [4]: effective in reducing viability | IC50 ([4]; Homo sapiens, HaCaT, 24 hr post-administration, Neutral Red, mean of several experiments): 62 µM | Effect on viability of HaCat II4 cells [5]: effective in reducing viability | IC50 ([5]; Homo sapiens, HaCaT, 24 hr post-administration, Neutral Red, mean of several experiments, read-out: Mean IC50 in keratinocytes, HaCatII4RT): 48 µM

CSc1ccc2c(c1)N(CCC1CCCCN1C)c1ccccc1S2 (stereo not shown) [Thioridazine, thioridazine]
Effect on viability of HaCat cells [3]: effective in reducing viability | Effect on viability of HaCat A5 cells [4]: effective in reducing viability | Effect on viability of HaCat II4 cells [5]: effective in reducing viability

COc1ccc(C(CN(C)C)C2(O)CCCCC2)cc1 (stereo not shown) [Venlafaxine, venlafaxine]
IC50 [3, 14]: > 100 µM

CCOc1ccccc1OC(c1ccccc1)C1CNCCO1 (stereo not shown) [Reboxetine, reboxetine]
IC50 ([3]; 24 h): > 100 µM

O=c1[nH]cc(F)c(=O)[nH]1 [5-FU, 5-fluorouracil]
Responsiveness of HaCat cells (viability) [3]: resistant | Responsiveness of HaCat A5 cells (viability) ([4]; comparison of thioridazine, doxorubicin, 5-FU, FIG. 3B): resistant

CNCCC(Oc1ccc(C(F)(F)F)cc1)c1ccccc1 (stereo not shown) [Fluoxetine, fluoxetine]
Viability of wild type B16 melanoma cells [1]: capable of reducing cell viability, with fluoxetine being the most effective drug | Effect on viability of HaCat cells [3]: effective in reducing viability | Effect on viability of HaCat A5 cells [4]: effective in reducing viability | Effect on viability of HaCat II4 cells [5]: effective in reducing viability

CN[C@H]1CC[C@@H](c2ccc(Cl)c(Cl)c2)c2ccccc21 [Sertraline, sertraline]
Caspase-3 activity [8]: significant increase in caspase-3 activity

CN(C)CCCN1c2ccccc2CCc2ccc(Cl)cc21 [Clomipramine, clomipramine]
Viability of wild type B16 melanoma cells [1]: capable of reducing cell viability | Lymphocyte-induced cytokine secretion (IL-2, INF-γ) [7]: decrease in the lymphocyte-induced cytokine secretion | Cell viability in combination with doxorubicin [12]: significantly reduced, in a dose dependant manner | Effect on viability of HaCat cells [3]: effective in reducing viability | Cell viability from control, in combination with doxorubicin [13]: less than 15% | Splenocyte proliferation ([9]; 2.5-10 μM, FIG. 14): dose dependent decrease in splenocyte proliferation | Effect on viability of HaCat A5 cells [4]: effective in reducing viability | Effect on viability of HaCat II4 cells [5]: effective in reducing viability | Red fluorescence of nuclei indicating apoptosis [11]: dramatic increase in red fluorescence of nuclei

C[C@@H]1C[C@H]2[C@@H]3CCC4=CC(=O)C=C[C@]4(C)[C@@]3(F)[C@@H](O)C[C@]2(C)[C@@]1(O)C(=O)CO [dexamethasone]
IC50 [6]: 0.6 µM
